One data set deals with rat TTR gene. The data set is described as follows: In vivo editing of TTR in rat liver after LNP delivery (NGS, % editing). Set-up: species or system rat (Sprague-Dawley). How it is done: LNPs were prepared using various amine lipids in a 4-component lipid system consisting of an ionizable lipid (e.g., an amine lipid), DSPC, cholesterol and a PEG lipid (e.g., PEG2K-DMG, C13 Ether, C14 Ether). In assays for percent liver editing in rats, Cas9 mRNA and chemically modified sgRNA targeting a rat sequence were formulated in LNPs, at either a 1:1 w/w ratio or a 1:2 w/w sgRNA:Cas9 mRNA ratio.
The lipid components were dissolved in 100% ethanol with the lipid component molar ratios described below. The chemically modified sgRNA and Cas9 mRNA were combined and dissolved in 25 mM citrate, 100 mM NaCl, pH 5.0, resulting in a concentration of total RNA cargo of approximately 0.45 mg/mL. The LNPs were formulated with an N:P ratio of about 6, with the ratio of chemically modified sgRNA:Cas9 mRNA at either a 1:1 or 1:2 w/w ratio as described below.
The LNPs were formed by an impinging jet mixing of the lipid in ethanol with two volumes of RNA solution and one volume of water. First, the lipid in ethanol is mixed through a mixing cross with the two volumes of RNA solution. Then, a fourth stream of water is mixed with the outlet stream of the cross through an inline tee. (See, e.g., WO2016010840, FIG. 2). The LNPs were held for 1 hour at room temperature, and further diluted with water (approximately 1:1 v/v). Diluted LNPs were buffer exchanged into 50 mM Tris, 45 mM NaCl, 5% (w/v) sucrose, pH 7.5 (TSS) and concentrated as needed by methods known in the art. The resulting mixture was then filtered using a 0.2 μm sterile filter. The final LNP was stored at 4° C. or −80° C. until further use.
Sprague-Dawley female rats, ranging from 6-10 weeks of age were used in each study. Animals were weighed and dosed based on individual body weight measured the morning of dosing. LNPs were dosed via the lateral tail vein in a volume of 2 mL per kilogram of animal body weight. The animals were periodically observed for adverse effects for at least 24 hours post dose.
For studies measuring in vivo editing in liver, Sprague-Dawley female rats were dosed at 0.1 mpk or 0.03 mpk, unless otherwise noted. Animals were euthanized at 6 or 7 days by carbon dioxide asphyxiation and a heart clip or by ex sanguination via cardiac puncture under isoflourane anesthesia. Blood was collected into serum separator tubes. Liver tissue was collected. Genomic DNA was isolated from the liver tissue for editing measurement by Next-Generation Sequencing (NGS).
In brief, to quantitatively determine the efficiency of editing at the target location in the genome, genomic DNA was isolated and deep sequencing was utilized to identify the presence of insertions and deletions introduced by gene editing.
PCR primers were designed around the target site (e.g., TTR), and the genomic area of interest was amplified. Additional PCR was performed according to the manufacturer's protocols (Illumina) to add the necessary chemistry for sequencing. The amplicons were sequenced on an Illumina MiSeq instrument. The reads were aligned to the […] after eliminating those having low quality scores. The resulting files containing the reads were mapped to the reference genome (BAM files), where reads that overlapped the target region of interest were selected and the number of wild type reads versus the number of reads which contain an insertion, substitution, or deletion was calculated.
The editing percentage (e.g., the “indel efficiency” or “percent indels” or “% editing” or “% indel”) can be defined as the total number of sequence reads with insertions or deletions over the total number of sequence reads, including wild type.
In vivo editing efficiency for materials delivered with formulations including various amine lipid (or ionizable lipid) compounds in Experiments 1 through 14 as described in Tables 3 and 4 was assessed. Editing was measured using G000534 (SEQ ID NO: 5) which targets the rat TTR gene. […]

The nature of data set [1]: pKa of unformulated amine lipid by TNS fluorescence. It counts as physicochemical. The following applies: sodium phosphate buffer; Table 2; unformulated amine lipid, TNS; read-out: Lipid pKa. How it is done: The pKa of each amine lipid was determined according to the method in Jayaraman, et al. (Angew Chem Int Ed Engl 51(34), 2012, 8529-8533) with the following adaptations. The pKa was determined for unformulated amine lipid in ethanol. Lipid stock solutions (2.94 mM) were diluted into Sodium Phosphate Buffers (0.1 M, Boston Bioproducts) of different pH (pH-range: 4.5-9.0) yielding a final lipid concentration of approx. 100 μM. The test samples were supplemented with TNS {6-(p-Toluidino)-2-naphthalenesulfonic acid sodium salt}, incubated and the fluorescence intensity was measured using excitation and emission wavelengths of 321 nm and 448 nm, respectively. The recorded data were normalized and the respective pKa values were derived from sigmoidal fitting.

Setting [2] is: Experiment 3, 0.1 mpk, LNP with PEG2K-DMG.
Setting [3] is: Experiment 2, 0.1 mpk, LNP with PEG2K-DMG.
Where [4] appears, read: Experiment 14, 0.03 mpk, LNP with C13 Ether.
Where [5] appears, read: Experiment 12, 0.04 mpk, LNP with PEG2K-DMG.
Setting [6] is: Table 8, 0.03 mpk, LNP with C13 Ether.
Where [7] appears, read: Experiment 4, 0.1 mpk, LNP with PEG2K-DMG.
The mark [8] stands for this setting: Experiment 7, 0.1 mpk, LNP with PEG2K-DMG.

In the data set on rat TTR gene (setting [2]), `CCCCCCCCOC(CCC(=O)OCC(COC(=O)CCC(OCCCCCCCC)OCCCCCCCC)COC(=O)OCCCN(CC)CC)OCCCCCCCC` [Compound 1, 2-((((3-(diethylamino)propoxy)carbonyl)oxy)methyl)propane-1,3-diyl bis(4,4-bis(octyloxy)butanoate)] showed a Mean % editing of 52.4%.
In general, pKa refers to the negative logarithm of the acid dissociation constant. `CCCCCCCCC(CCCCCCCC)OC(=O)CCCC(=O)OCC(COC(=O)CCCC(=O)OC(CCCCCCCC)CCCCCCCC)COC(=O)OCCCN(CC)CC` [Compound 2, O,O′-(2-((((3-(diethylamino)propoxy)carbonyl)oxy)methyl)propane-1,3-diyl) di(heptadecan-9-yl) diglutarate]: the pKa in data set [1] was 6.23. Besides, the results for the Mean % editing in the data set with rat TTR gene (setting [3]), in the data set on rat TTR gene (setting [2]) and with rat TTR gene (setting [4]) were 59.8%, 38.3% and 21.2%, respectively.
In the data set on rat TTR gene (setting [3]), `CCCCCCCCC(CCCCCCCC)OC(=O)CCCCCC(=O)OCC(COC(=O)CCCCCC(=O)OC(CCCCCCCC)CCCCCCCC)COC(=O)OCCCN(CC)CC` [Compound 3, O′1,O1-(2-((((3-(diethylamino)propoxy)carbonyl)oxy)methyl)propane-1,3-diyl) 7,7′-di(heptadecan-9-yl) di(heptanedioate)] gave a Mean % editing of 53.0%.
Turning to `CCCCC/C=C\C/C=C\CCCCCCCC(=O)OCC(COC(=O)CCCCCC(=O)OCC(CCCC)CCCCCC)COC(=O)OCCCN(CC)CC` (stereo not shown) [Compound 4, 1-(2-butyloctyl) 7-(3-(((3-(diethylamino)propoxy)carbonyl)oxy)-2-((((9Z,12Z)-octadeca-9,12-dienoyl)oxy)methyl)propyl) heptanedioate], in data set [1], the pKa worked out at 6.05. For the same compound, the Mean % editing in the data set on rat TTR gene (setting [3]) was found to be 27.2%; in the data set on rat TTR gene (setting [2]), 29.7%.
`CCCCCCC(CCCC)COC(=O)CCCCCC(=O)OCC(COC(=O)CCCCCC(=O)OCC(CCCC)CCCCCC)COC(=O)OCCCN(CC)CC` (stereo not shown) [Compound 5, 7,7′-bis(2-butyloctyl) O′1,O1-(2-((((3-(diethylamino)propoxy)carbonyl)oxy)methyl)propane-1,3-diyl) di(heptanedioate)] gave a Mean % editing in the data set with rat TTR gene (setting [3]) of 52.0%.
With `CCCCCCCCC(CCCCCCCC)OC(=O)CCCC(=O)OCC(COC(=O)CCCC(=O)OC(CCCCCCCC)CCCCCCCC)COC(=O)NCCN(CC)CC` [Compound 6, O,O′-(2-((((2-(diethylamino)ethyl)carbamoyl)oxy)methyl)propane-1,3-diyl) di(heptadecan-9-yl) diglutarate], the pKa in data set [1] is 6.35. In addition, the Mean % editing in the data set on rat TTR gene (setting [5]) is recorded as 36.3%; in the data set on rat TTR gene (Experiment 13, 0.03 mpk, LNP with PEG2K-DMG), 25.0%; in the data set on rat TTR gene (setting [4]) it was 22.4%; in the data set with rat TTR gene (Table 6, 0.03 mpk, PEG lipid C13 Ether) it was 27.4%; in the data set with rat TTR gene (Table 6, 0.03 mpk, PEG lipid C14 Ether), 18.9%; with rat TTR gene (Table 6, 0.03 mpk, PEG lipid PEG2K-DMG) it was 26.8%. Besides, the Mean % editing in the data set on rat TTR gene (setting [6]) is reported as 41.7%. In addition, in the data set on rat TTR gene (NGS, dose 0.03 mpk, LNP with G000534 sgRNA and Cas9 mRNA 1:2 w/w, 3% C13 Ether (Compound 53: 3% PEG2K-DMG), N=5 (Compound 33: N=4)), the “Mean % editing in rat liver” value is given as 30.4%.
`CCCCC/C=C\C/C=C\CCCCCCCC(=O)OCC(CCCCCCCCC(=O)OCC(CCCC)CCCCCC)COC(=O)OCCCN(CC)CC` (stereo not shown) [Compound 7, 11-((2-butyloctyl)oxy)-2-((((3-(diethylamino)propoxy)carbonyl)oxy)methyl)-11-oxoundecyl (9Z,12Z)-octadeca-9,12-dienoate]: in data set [1], the pKa is 6.09. This compound also displayed a Mean % editing with rat TTR gene (setting [2]) of 30.0%.
For the compound `CCCCCCCCC(CCCCCCCC)OC(=O)CCCCCCC(COC(=O)CCCC(=O)OC(CCCCCCCC)CCCCCCCC)COC(=O)OCCCN(CC)CC` (stereo not shown) [Compound 8, 2-((((3-(diethylamino)propoxy)carbonyl)oxy)methyl)-9-(heptadecan-9-yloxy)-9-oxononyl heptadecan-9-yl glutarate], the pKa in data set [1] amounted to 5.85. In the data set on rat TTR gene (setting [2]), the Mean % editing was 20.8%.
For the compound `CCCCC/C=C\C/C=C\CCCCCCCC(=O)OCC(CCCCCCCCC(=O)OC(CCCCCCCC)CCCCCCCC)COC(=O)OCCCN(CC)CC` (stereo not shown) [Compound 9, 2-((((3-(diethylamino)propoxy)carbonyl)oxy)methyl)-11-(heptadecan-9-yloxy)-11-oxoundecyl (9Z,12Z)-octadeca-9,12-dienoate], the pKa in data set [1] stood at 5.87. In addition, the Mean % editing in the data set with rat TTR gene (setting [2]) was 5.3%; with rat TTR gene (setting [7]), 9.6%; in the data set with rat TTR gene (Experiment 9, 0.1 mpk, LNP with PEG2K-DMG), 4.3%.
With `CCCCC/C=C\C/C=C\CCCCCCCC(=O)OCC(CCCCCCCCC(=O)OC(CCCCCCCC)CCCCCCCC)COC(=O)NCCN(CC)CC` (stereo not shown) [Compound 10, 2-((((2-(diethylamino)ethyl)carbamoyl)oxy)methyl)-11-(heptadecan-9-yloxy)-11-oxoundecyl (9Z,12Z)-octadeca-9,12-dienoate], the pKa in data set [1] was found to be 6.37. This compound gave a Mean % editing in the data set with rat TTR gene (setting [7]) of 35.3%.
In the case of `CCCCCCCCC(CCCCCCCC)OC(=O)CCCC(=O)OCC(C)(COC(=O)CCCC(=O)OC(CCCCCCCC)CCCCCCCC)COC(=O)NCCN(CC)CC` [Compound 36, O,O′-(2-((((2-(diethylamino)ethyl)carbamoyl)oxy)methyl)-2-methylpropane-1,3-diyl) di(heptadecan-9-yl) diglutarate], the Mean % editing with rat TTR gene (setting [5]) was determined as 27.4%.
Regarding `CCCCCCCCCCCC(=O)OCC(COC(=O)CCC(OCCCCCCCC)OCCCCCCCC)COC(=O)OCCCN(CC)CC` (stereo not shown) [Compound 41, 3-((4,4-bis(octyloxy)butanoyl)oxy)-2-((((3-(diethylamino)propoxy)carbonyl)oxy)methyl)propyl Dodecanoate], the Mean % editing in the data set with rat TTR gene (setting [8]) worked out at 5.8%.
For `CCCCCCCCOC(CCC(=O)OCC(COC(=O)CC(CCCC)CCCCCC)COC(=O)OCCCN(CC)CC)OCCCCCCCC` (stereo not shown) [Compound 43, 3-((4,4-bis(octyloxy)butanoyl)oxy)-2-((((3-(diethylamino)propoxy)carbonyl)oxy)methyl)propyl 3-butylnonanoate], the Mean % editing in the data set on rat TTR gene (setting [8]) came to 57.5%.
Same read-out and setting: to `CCCCCCCCOC(CCC(=O)OCC(COC(=O)NCCN(CC)CC)COC(=O)C(CCCC)CCCCCC)OCCCCCCCC` (stereo not shown) [Compound 48, 3-((4,4-bis(octyloxy)butanoyl)oxy)-2-((((2-(diethylamino)ethyl)carbamoyl)oxy)methyl)propyl 2-butyloctanoate] belongs 55.0%.
As to `CCCCCCCCC(CCCCCCCC)CC(=O)OCCC(=O)OCC(COC(=O)CCCC(=O)OC(CCCCCCCC)CCCCCCCC)COC(=O)NCCN(CC)CC` (stereo not shown) [Compound 63, 3-(((2-(diethylamino)ethyl)carbamoyl)oxy)-2-(((3-((3-octylundecanoyl)oxy)propanoyl)oxy)methyl)propyl heptadecan-9-yl Glutarate], in the data set with rat TTR gene (setting [6]), the Mean % editing amounted to 0.1%.

Source of the values: patent US20260337153A1, “IONIZABLE AMINE LIPIDS” (Intellia Therapeutics, Inc., priority 2023, published 2026).
